Data set [1] relates to lettuce (Lactuca sativa cv. L. Iceberg). Put plainly: initial phytotoxicity bioassay, lettuce. The conditions noted are these: for Phytotoxic activity ranking: visual scale 0 to 5, 0 = no effect, 5 = no growth; for growth inhibition (in words): 1 mg/mL (highest concentration). The data set is classed as in vivo.
Data set [2] concerns bentgrass (Agrostis stolonifera). Put plainly: initial phytotoxicity bioassay, bentgrass. The format is in vivo. The following applies: for Phytotoxic activity ranking: visual scale 0 to 5, 0 = no effect, 5 = no growth; for growth inhibition (in words): 1 mg/mL (highest concentration).
For data set [3], the system named is duckweed (Lemna pausicostata). Put plainly: duckweed growth bioassay. The format is in vivo. The following applies: 168 h, read-out: I50, growth of duckweed.
Another data set in a line: cytotoxicity to KB cells. The data set is classed as cell-based. The conditions noted are these: human.
Data set [4] in a line: cytotoxicity to SK-OV-3 cells. The data set is classed as cell-based. The conditions noted are these: human.
The next data set relates to wheat coleoptile. The conditions noted are these: cited from earlier work.
Data set [5] concerns D6 (chloroquin sensitive) strain of P. falciparum. Put plainly: in vitro antiplasmodial activity, D6 clone. The conditions noted are these: for IC50: Plasmodium falciparum, D6, 72 h, read-out: D6-clone IC50; for antiplasmodial activity (in words): D6 strain. The data set is classed as cell-based, Plasmodium falciparum.
Data set [6] concerns W2 (chloroquin resistant) strain of P. falciparum. Put plainly: in vitro antiplasmodial activity, W2 clone. The following applies: for IC50: Plasmodium falciparum, W2, 72 h, read-out: W2-clone IC50; for antiplasmodial activity (in words): W2 strain. The format is cell-based, Plasmodium falciparum.
The nature of data set [7]: cytotoxicity to BT-549 cells. The data set is classed as cell-based. The following applies: human.
Data set [8] in a line: cytotoxicity to SK-MEL cells. The following applies: human. The format is cell-based.
Data set [9] can be described thus: cytotoxicity to LLC-PK11 cells. The format is cell-based. The conditions noted are these: pig.
In data set [10] the test system is a number of plant species. The following applies: cited from earlier work.
The nature of data set [11]: cytotoxicity to Vero cells. The data set is classed as cell-based. The conditions noted are these: African green monkey, Vero cells (kidney fibroblast).
Setting [12] is: BT-549 cells (breast ductal carcinoma).
[13] abbreviates: KB cells (oral epidermal carcinoma).
Where [14] appears, read: LLC-PK11 cells (kidney epithelial).
Setting [15] is: SK-OV-3 cells (ovary carcinoma).

Values after ≈ are worked out from the molar mass of the structure shown. Where only a bound is given, the exact number is not on record here.

As to `C[C@]12C=C[C@H](O)[C@]3(C)C(=O)O[C@@H](C13)[C@H]1O[C@]13COC(=O)C=C32` (some centres unmarked) [Compound 1], the Phytotoxic activity ranking came out at 5 in data set [1] (0.01 mg/mL); 5 in data set [1] (0.1 mg/mL); 5 in data set [1] (1.0 mg/mL); 4 in data set [2] (0.01 mg/mL); 5 in data set [2] (0.1 mg/mL); 5 in data set [2] (1.0 mg/mL).
Regarding `C[C@]12C=CC[C@]3(C)C(=O)O[C@@H](C13)[C@H]1O[C@]13COC(=O)C=C32` (some centres unmarked) [Compound 2], the Phytotoxic activity ranking in data set [1] (0.001 mg/mL) is 0; in data set [1] (0.01 mg/mL), 3; in data set [1] (0.1 mg/mL), 5; in data set [1] (1.0 mg/mL) it was 5; in [2] (0.001 mg/mL), 1; in [2] (0.01 mg/mL), 4. Further, the Phytotoxic activity ranking in data set [2] (0.1 mg/mL) and in [2] (1.0 mg/mL) was 5 throughout. In [3], the IC50 was 390 to 950 nM. Also, the IC50 at 48 h (in the data set “cytotoxicity to KB cells”; in data set [4]) was more than 10 µg/mL throughout.
For `C[C@@]12C[C@@H](O)C[C@]3(C)C4=CC(=O)OCC4=C[C@@H](OC1=O)C23` (some centres unmarked) [Compound 9], the Phytotoxic activity ranking in data set [1] (0.01 mg/mL) was determined as 2; in [1] (0.1 mg/mL) it was 5; in data set [1] (1.0 mg/mL), 5; in data set [2] (0.001 mg/mL) it was 2; in data set [2] (0.01 mg/mL), 3; in [2] (0.1 mg/mL), 5. The compound also gave a Phytotoxic activity ranking in [2] (1.0 mg/mL) of 5. Besides, in the data set on wheat coleoptile, the “inhibition of wheat coleoptile elongation (in words)” value is recorded as “weak inhibitor”. The figures for the IC50 in [5] and in [6] were 0.097 µg/mL (≈ 0.334 µM) and 0.084 µg/mL (≈ 0.289 µM), respectively.
In the case of `C[C@@]12C[C@@H](O)C[C@]3(C)C4=CC(=O)OC[C@]45O[C@@H]5[C@@H](OC1=O)C23` (some centres unmarked) [Compound 4], the Phytotoxic activity ranking in data set [1] (0.001 mg/mL) stood at 0; in data set [1] (0.01 mg/mL), 3; in data set [1] (0.1 mg/mL), 5; in [1] (1.0 mg/mL), 5; in data set [2] (0.001 mg/mL) it was 0; in data set [2] (0.01 mg/mL), 2. In addition, the Phytotoxic activity ranking in data set [2] (0.1 mg/mL) and in data set [2] (1.0 mg/mL) was 5 each time. In addition, in [6], the IC50 was 0.82 µg/mL (≈ 2.68 µM).
As to `C[C@@]12C=C[C@H](O)[C@]3(C)C(=O)O[C@H](C=C4COC(=O)C=C41)C23` (some centres unmarked) [Compound 6], the Phytotoxic activity ranking in data set [1] (0.001 mg/mL) is reported as 0; in data set [1] (0.01 mg/mL), 5; in [1] (0.1 mg/mL) it was 5; in data set [1] (1.0 mg/mL), 5; in data set [2] (0.001 mg/mL), 0; in data set [2] (0.01 mg/mL) it was 4. Also, the Phytotoxic activity ranking in data set [2] (0.1 mg/mL) and in data set [2] (1.0 mg/mL) was 5 throughout. Besides, the IC50 is 390 to 950 nM in data set [3] and 0.043 µg/mL (≈ 0.149 µM) in [5].
Turning to `C[C@@]12CC[C@@H](O)[C@]3(C)C(=O)O[C@H](C=C4COC(=O)C=C41)C23` (some centres unmarked) [Compound 8], the Phytotoxic activity ranking in data set [1] (0.001 mg/mL) was 0; in data set [1] (0.01 mg/mL), 0; in data set [1] (0.1 mg/mL), 2; in [1] (1.0 mg/mL), 5; in [2] (0.001 mg/mL), 0; in data set [2] (0.01 mg/mL), 0. Moreover, the Phytotoxic activity ranking was 3 in [2] (0.1 mg/mL) and 5 in data set [2] (1.0 mg/mL). Further, the “growth inhibition (in words)” value in data set [1] and in data set [2] was “total inhibition of growth” each time. In addition, the IC50 at 48 h (in [7]; in [8]; in the data set “cytotoxicity to KB cells”; in [9]; in data set [4]) was more than 10 µg/mL in each case. In addition, the “antiplasmodial activity (in words)” value in data set [5] and in data set [6] was “inactive” throughout.
As for `C[C@@]12CC[C@@H](O)[C@]3(C)C4=CC(=O)OCC4=C[C@@H](OC1=O)C23` (some centres unmarked) [Compound 10], the Phytotoxic activity ranking in data set [1] (0.001 mg/mL) worked out at 0; in [1] (0.01 mg/mL), 1; in data set [1] (0.1 mg/mL), 5; in [1] (1.0 mg/mL), 5; in data set [2] (0.001 mg/mL) it was 0; in data set [2] (0.01 mg/mL) it was 1. For the same compound, the Phytotoxic activity ranking in data set [2] (0.1 mg/mL) and in [2] (1.0 mg/mL) was 5 throughout.
Regarding `C[C@]12CC[C@@H](O)[C@]3(C)C(=O)O[C@@H](C13)[C@H]1O[C@]13COC(=O)C=C32` (some centres unmarked) [Compound 3], the Phytotoxic activity ranking was found to be 0 in [1] (0.001 mg/mL); 0 in [1] (0.01 mg/mL); 4 in [1] (0.1 mg/mL); 5 in data set [1] (1.0 mg/mL); 0 in [2] (0.001 mg/mL); 0 in data set [2] (0.01 mg/mL). Besides, the Phytotoxic activity ranking in [2] (0.1 mg/mL) came to 4; in [2] (1.0 mg/mL), 5. In addition, the “growth inhibition (in words)” value in data set [1] and in data set [2] was “total inhibition of growth” in each case. The IC50 at 48 h (in data set [7]; in data set [8]; in the data set “cytotoxicity to KB cells”; in data set [9]; in [4]) was more than 10 µg/mL throughout. Also, the “antiplasmodial activity (in words)” value in data set [5] and in data set [6] was “inactive” throughout. For the same compound, the IC50 in [5] and in [6] was more than 4.76 µg/mL throughout.
With `C[C@@]12C=CC[C@]3(C)C(=O)O[C@H](C=C4COC(=O)C=C41)C23` (some centres unmarked) [Compound 7], the Phytotoxic activity ranking is given as 0 in data set [1] (0.001 mg/mL); 1 in [1] (0.01 mg/mL); 5 in data set [1] (0.1 mg/mL); 5 in data set [1] (1.0 mg/mL); 0 in data set [2] (0.001 mg/mL); 5 in [2] (0.1 mg/mL). The Phytotoxic activity ranking in [2] (1.0 mg/mL) was 5. For the same compound, the IC50 in [3] is 390 to 950 nM; in data set [5], 0.17 µg/mL (≈ 0.624 µM).
For the compound `C[C@@]12CC[C@@H](O)[C@]3(C)C4=CC(=O)OC[C@]45O[C@@H]5[C@@H](OC1=O)C23` (some centres unmarked) [Compound 5], the Phytotoxic activity ranking is 1 in data set [1] (0.001 mg/mL); 4 in data set [1] (0.01 mg/mL); 5 in data set [1] (0.1 mg/mL); 5 in data set [1] (1.0 mg/mL); 0 in data set [2] (0.001 mg/mL); 4 in data set [2] (0.01 mg/mL). Further, the Phytotoxic activity ranking in [2] (0.1 mg/mL) and in data set [2] (1.0 mg/mL) was 5 in each case. Besides, the IC50 at 48 h (in [7] (setting [12]); in the data set “cytotoxicity to KB cells” (setting [13]); in [9] (setting [14]); in [4] (setting [15])) was more than 10 µg/mL throughout. The “antiplasmodial activity (in words)” value in data set [5] and in data set [6] was “inactive” in each case.
On to `C[C@]12CCC[C@](C)(C(=O)O)[C@@H]1C=C[C@]1(O)COC(=O)C[C@H]21` [Compound 12, oidiolactone-E], for which the Phytotoxic activity ranking in [1] (0.001 mg/mL) was 0; in data set [1] (0.01 mg/mL), 2; in data set [1] (0.1 mg/mL), 4; in data set [1] (1.0 mg/mL), 5; in [2] (0.001 mg/mL), 0; in data set [2] (0.01 mg/mL), 1. Moreover, the figures for the Phytotoxic activity ranking in data set [2] (0.1 mg/mL) and in data set [2] (1.0 mg/mL) were 4 and 5, respectively.
Consider `C[C@@]12CCC[C@]3(C)C4=CC(=O)OCC4=C[C@@H](OC1=O)C23` (some centres unmarked) [Compound 11], for which the Phytotoxic activity ranking in data set [1] (0.001 mg/mL) is reported as 0; in data set [1] (0.01 mg/mL), 2; in data set [1] (0.1 mg/mL) it was 5; in data set [1] (1.0 mg/mL) it was 5; in [2] (0.001 mg/mL), 0; in [2] (0.01 mg/mL), 3. The Phytotoxic activity ranking in [2] (0.1 mg/mL) and in [2] (1.0 mg/mL) was 5 each time. Also, in data set [10], the “phytotoxicity (in words)” value is “potent phytotoxin”. For the same compound, the IC50 in [3] lay in the range of 390 to 950 nM.
Take `C=C1C(O)CC2[C@](C)(CCC[C@]2(C)C(=O)O)C1CC(=O)O` (some centres unmarked) [Compound 13]: the Phytotoxic activity ranking in data set [1] (0.001 mg/mL) came out at 0; in data set [1] (0.01 mg/mL), 0; in data set [1] (0.1 mg/mL), 0; in data set [1] (1.0 mg/mL) it was 1; in data set [2] (0.001 mg/mL), 0; in data set [2] (0.01 mg/mL) it was 0. Moreover, the Phytotoxic activity ranking in data set [2] (0.1 mg/mL) and in data set [2] (1.0 mg/mL) was 0 in each case. Further, the “growth inhibition (in words)” value in data set [1] and in data set [2] was “inactive” throughout. Moreover, the IC50 at 48 h in data set [7] (setting [12]) is more than 10 µg/mL; in data set [8] (SK-MEL cells (malignant melanoma)), more than 10 µg/mL; in “cytotoxicity to KB cells” (setting [13]), more than 10 µg/mL; in [9] (setting [14]), more than 10 µg/mL; in data set [4] (setting [15]), more than 10 µg/mL; in data set [11], more than 4.76 µg/mL. Also, the “antiplasmodial activity (in words)” value in [5] and in [6] was “inactive” each time. Also, the IC50 in data set [5] and in [6] was more than 4.76 µg/mL throughout.
As to `CCN(CC)CCCC(C)Nc1ccnc2cc(Cl)ccc12` (centres unmarked) [chloroquine, reference compound], the IC50 in data set [6] was determined as 0.1 µg/mL (≈ 0.313 µM).

(Values after paper PMC2856487 (Journal of natural products, 2009).)
